{
  "source": "PubChem BioAssay (NCI)",
  "assay_in_all_cases": "NCI tumour cell line growth inhibition, 48 h",
  "key": {"[1]": {"system": "786-0 renal"}, "[2]": {"system": "A498 renal"}, "[3]": {"system": "A549 NSCLC"}, "[4]": {"system": "ACHN renal"}, "[5]": {"system": "BT-549 breast"}, "[6]": {"system": "DU-145 prostate"}, "[7]": {"system": "HCC-2998 colon"}, "[8]": {"system": "HCT-116 colon"}, "[9]": {"system": "HCT-15 colon"}, "[10]": {"system": "HOP-62 NSCLC"}, "[11]": {"system": "HOP-92 NSCLC"}, "[12]": {"system": "HS 578T breast"}, "[13]": {"system": "HT29 colon"}, "[14]": {"system": "IGROV1 ovarian"}, "[15]": {"system": "MALME-3M melanoma"}, "[16]": {"system": "MCF7 breast"}, "[17]": {"system": "MDA-MB-231 breast"}, "[18]": {"system": "MDA-MB-435"}, "[19]": {"system": "NCI-H226 lung"}, "[20]": {"system": "NCI-H23 lung"}, "[21]": {"system": "NCI-H460 lung"}, "[22]": {"system": "NCI-H522 lung"}, "[23]": {"system": "NCI/ADR-RES ovarian"}, "[24]": {"system": "OVCAR-3 ovarian"}, "[25]": {"system": "OVCAR-4 ovarian"}, "[26]": {"system": "OVCAR-5 ovarian"}, "[27]": {"system": "OVCAR-8 ovarian"}, "[28]": {"system": "PC-3 prostate"}, "[29]": {"system": "RXF 393 renal"}, "[30]": {"system": "SF-268 CNS"}, "[31]": {"system": "SF-539 CNS"}, "[32]": {"system": "SK-MEL-2 melanoma"}, "[33]": {"system": "SK-MEL-28 melanoma"}, "[34]": {"system": "SK-OV-3 ovarian"}, "[35]": {"system": "SN12C renal"}, "[36]": {"system": "SNB-19 CNS"}, "[37]": {"system": "T-47D breast"}, "[38]": {"system": "TK-10 renal"}, "[39]": {"system": "U251 CNS"}, "[40]": {"system": "UACC-257 melanoma"}, "[41]": {"system": "UACC-62 melanoma"}},
  "note": "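Test compounds were applied to cells in 96-well plates for 48 hours at 5 doses. GI50 = concentration required for 50% inhibition of growth. TGI is the concentration that stops growth completely.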",
  "data": [
    {"smiles": "C=C1c2c(C)nn(-c3ccccc3)c2N(C)C23C[C@@H]1C1(C)c4c(C)nn(-c5ccccc5)c4N(C)C(C)(C[C@H]12)C3", "note": "(some centres not stated)", "values": [
      {"measurement": "GI50", "setting": "[1]", "result": 11.8, "unit": "µM"},
      {"measurement": "TGI", "setting": "[1]", "result": 69.4, "unit": "µM"},
      {"measurement": "GI50", "setting": "[2]", "result": 4.28, "unit": "µM"},
      {"measurement": "TGI", "setting": "[2]", "result": 45.9, "unit": "µM"},
      {"measurement": "GI50", "setting": "[3]", "result": 2.37, "unit": "µM"},
      {"measurement": "TGI", "setting": "[3]", "result": "> 100", "unit": "µM"},
      {"measurement": "GI50", "setting": "[4]", "result": 4.78, "unit": "µM"},
      {"measurement": "TGI", "setting": "[4]", "result": "> 100", "unit": "µM"},
      {"measurement": "GI50", "setting": "[5]", "result": 5.55, "unit": "µM"},
      {"measurement": "TGI", "setting": "[5]", "result": "> 100", "unit": "µM"},
      {"measurement": "GI50", "setting": "[6]", "result": 8.7, "unit": "µM"},
      {"measurement": "TGI", "setting": "[6]", "result": "> 100", "unit": "µM"},
      {"measurement": "GI50", "setting": "[7]", "result": 6.21, "unit": "µM"},
      {"measurement": "TGI", "setting": "[7]", "result": "> 100", "unit": "µM"},
      {"measurement": "GI50", "setting": "[8]", "result": 3.72, "unit": "µM"},
      {"measurement": "TGI", "setting": "[8]", "result": "> 100", "unit": "µM"},
      {"measurement": "GI50", "setting": "[9]", "result": 3.67, "unit": "µM"},
      {"measurement": "TGI", "setting": "[9]", "result": "> 100", "unit": "µM"},
      {"measurement": "GI50", "setting": "[10]", "result": 7.15, "unit": "µM"},
      {"measurement": "TGI", "setting": "[10]", "result": 25.9, "unit": "µM"},
      {"measurement": "GI50", "setting": "[11]", "result": 0.549, "unit": "µM"},
      {"measurement": "TGI", "setting": "[11]", "result": 5.53, "unit": "µM"},
      {"measurement": "GI50", "setting": "[12]", "result": 5.67, "unit": "µM"},
      {"measurement": "TGI", "setting": "[12]", "result": 80.1, "unit": "µM"},
      {"measurement": "GI50", "setting": "[13]", "result": 3.59, "unit": "µM"},
      {"measurement": "TGI", "setting": "[13]", "result": "> 100", "unit": "µM"},
      {"measurement": "GI50", "setting": "[14]", "result": 11.9, "unit": "µM"},
      {"measurement": "TGI", "setting": "[14]", "result": "> 100", "unit": "µM"},
      {"measurement": "GI50", "setting": "[15]", "result": 4.19, "unit": "µM"},
      {"measurement": "TGI", "setting": "[15]", "result": 93.5, "unit": "µM"},
      {"measurement": "GI50", "setting": "[16]", "result": 2.99, "unit": "µM"},
      {"measurement": "TGI", "setting": "[16]", "result": "> 100", "unit": "µM"},
      {"measurement": "GI50", "setting": "[17]", "result": 4.55, "unit": "µM"},
      {"measurement": "TGI", "setting": "[17]", "result": 39.6, "unit": "µM"},
      {"measurement": "GI50", "setting": "[18]", "result": 4.12, "unit": "µM"},
      {"measurement": "TGI", "setting": "[18]", "result": "> 100", "unit": "µM"},
      {"measurement": "GI50", "setting": "[19]", "result": 15.3, "unit": "µM"},
      {"measurement": "TGI", "setting": "[19]", "result": "> 100", "unit": "µM"},
      {"measurement": "GI50", "setting": "[20]", "result": 7.99, "unit": "µM"},
      {"measurement": "TGI", "setting": "[20]", "result": "> 100", "unit": "µM"},
      {"measurement": "GI50", "setting": "[21]", "result": 3.35, "unit": "µM"},
      {"measurement": "TGI", "setting": "[21]", "result": "> 100", "unit": "µM"},
      {"measurement": "GI50", "setting": "[22]", "result": 2.12, "unit": "µM"},
      {"measurement": "TGI", "setting": "[22]", "result": 7.73, "unit": "µM"},
      {"measurement": "GI50", "setting": "[23]", "result": 6.04, "unit": "µM"},
      {"measurement": "TGI", "setting": "[23]", "result": "> 100", "unit": "µM"},
      {"measurement": "GI50", "setting": "[24]", "result": 4.58, "unit": "µM"},
      {"measurement": "TGI", "setting": "[24]", "result": "> 100", "unit": "µM"},
      {"measurement": "GI50", "setting": "[25]", "result": 4.49, "unit": "µM"},
      {"measurement": "TGI", "setting": "[25]", "result": "> 100", "unit": "µM"},
      {"measurement": "GI50", "setting": "[26]", "result": "> 100", "unit": "µM"},
      {"measurement": "TGI", "setting": "[26]", "result": "> 100", "unit": "µM"},
      {"measurement": "GI50", "setting": "[27]", "result": 5.41, "unit": "µM"},
      {"measurement": "TGI", "setting": "[27]", "result": "> 100", "unit": "µM"},
      {"measurement": "GI50", "setting": "[28]", "result": 0.979, "unit": "µM"},
      {"measurement": "TGI", "setting": "[28]", "result": "> 100", "unit": "µM"},
      {"measurement": "GI50", "setting": "[29]", "result": 2.04, "unit": "µM"},
      {"measurement": "TGI", "setting": "[29]", "result": 6.39, "unit": "µM"},
      {"measurement": "GI50", "setting": "[30]", "result": 7.52, "unit": "µM"},
      {"measurement": "TGI", "setting": "[30]", "result": "> 100", "unit": "µM"},
      {"measurement": "GI50", "setting": "[31]", "result": 26.7, "unit": "µM"},
      {"measurement": "TGI", "setting": "[31]", "result": "> 100", "unit": "µM"},
      {"measurement": "GI50", "setting": "[32]", "result": 6.78, "unit": "µM"},
      {"measurement": "TGI", "setting": "[32]", "result": 22, "unit": "µM"},
      {"measurement": "GI50", "setting": "[33]", "result": 22.6, "unit": "µM"},
      {"measurement": "TGI", "setting": "[33]", "result": "> 100", "unit": "µM"},
      {"measurement": "GI50", "setting": "[34]", "result": 4.64, "unit": "µM"},
      {"measurement": "TGI", "setting": "[34]", "result": 21.8, "unit": "µM"},
      {"measurement": "GI50", "setting": "[35]", "result": 9.92, "unit": "µM"},
      {"measurement": "TGI", "setting": "[35]", "result": "> 100", "unit": "µM"},
      {"measurement": "GI50", "setting": "[36]", "result": 11, "unit": "µM"},
      {"measurement": "TGI", "setting": "[36]", "result": 79.6, "unit": "µM"},
      {"measurement": "GI50", "setting": "[37]", "result": 2.13, "unit": "µM"},
      {"measurement": "TGI", "setting": "[37]", "result": "> 100", "unit": "µM"},
      {"measurement": "GI50", "setting": "[38]", "result": 4.77, "unit": "µM"},
      {"measurement": "TGI", "setting": "[38]", "result": 24.5, "unit": "µM"},
      {"measurement": "GI50", "setting": "[39]", "result": 4.44, "unit": "µM"},
      {"measurement": "TGI", "setting": "[39]", "result": 31.6, "unit": "µM"},
      {"measurement": "GI50", "setting": "[40]", "result": 2.87, "unit": "µM"},
      {"measurement": "TGI", "setting": "[40]", "result": "> 100", "unit": "µM"},
      {"measurement": "GI50", "setting": "[41]", "result": 4.38, "unit": "µM"},
      {"measurement": "TGI", "setting": "[41]", "result": "> 100", "unit": "µM"}
    ]}
  ]
}
